Assay results published in patent US8097585B2, “Methods of treating inflammation by administration of heme oxygenase-1 and products of heme degradation” (priority 2002, dated 2012).

What was measured:
[1] = system: DSS-colitis; assay: DSS-colitis (acute colitis) mouse model: weight loss, DAI, symptoms, crypt score; assay type: in vivo, C57BL/6 mice
From the text: Animals. Pathogen-free male C57BL/6 mice, 4-6 weeks of age (Taconic; C57BL/6×129 svj strain) were used in this example. Mice were kept for one week at 4 mice/cage and fed normal laboratory chow and drinking water ad libitum prior to the experiments. All mice weighed between 22.5 g and 27.7 g at the beginning of the trial. The animal experimentation protocol was reviewed and approved by the Animal Care and Use Committees of the Beth Israel Deaconess Medical Center.
Induction of Colitis. Colitis was induced by feeding mice 5% (wt/v) dextran sodium sulfate (DSS) (MW 40,000; ICN Biomedicals Inc., OH), dissolved in distilled water, for a period of 7 days. The resulting condition was termed “DSS-colitis.” Control animals were fed distilled water ad libitum. The mortality rate in the control group and the CO-treated group was 10% (2/20) and 14% (2/14), respectively. These animals were excluded from the statistical analysis. In the other groups, no mortality occurred during 7 days of 5% DSS treatment.
Experimental Reagents and Treatment Protocol. Cobalt protoporphyrin (CoPPIX), zinc protoporphyrin (ZnPPIX, Porphyrin Products, Logan, Utah) and biliverdin dihydrochloride (ICN Biomedicals Inc., OH) were dissolved in a small amount 0.2 M NaOH, subsequently adjusted to a pH of 7.4 with 1 M HCl, and diluted in 0.9% NaCl. The stock solutions (CoPPIX and ZnPPIX=1 mg/ml, biliverdin=10 mM) were aliquoted and kept at −70° C. until used. Light exposure was limited as much as possible. CoPPIX (5 mg/kg), ZnPPIX (20 mg/kg) and biliverdin (50 μmol/kg) were administered to the mice intraperitoneally (i.p.) 24 hours before induction of DSS-colitis and daily thereafter. Desferoxamine (DFO) was prepared in imidazole buffer (50 mM imidazole, 220 mM NaCl, pH 7.4). DFO was injected subcutaneously (s.c.) twice daily (125 mg/kg) or infused i.p. (130 mg/kg/day; pumping rate 0.5 μl/hour for 8 days) by miniosmotic Alzet™ pumps (Alza Corporation, Palo Alto, Calif.) (Postma et al., Exp. Parasitol. 89(3):323-30 1998). The pumps were installed i.p. 24 hours before induction of colitis. When animals were sacrificed at day 7 of DSS treatment, the pumps were removed and evaluated to determine if DFO application had taken place.
CO gas was administrated exogenously by putting animals in a CO exposure chamber (Otterbein et al., Nat. Med. 6(4):422-8, 2000). Briefly, CO at a concentration of 1% (10,000 parts per million (ppm)) in compressed air was mixed with balanced air (21% oxygen) in a stainless steel mixing cylinder before entering the exposure chamber. CO concentrations were controlled by varying the flow rates of CO in a mixing cylinder before delivery to the chamber. Because the flow rate is primarily determined by the O2 flow, only the CO flow was changed to deliver the final concentration to the exposure chamber. A CO analyzer (Interscan Corporation, Chatsworth, Calif.) was used to measure CO levels continuously in the chamber. Mice were placed in the chamber 24 hours before the induction of the colitis and were kept in the exposure chamber during the whole period of the experiment (total of 8 days). […] Animals were removed daily from the chamber to assess weight and stool.
Evaluation of Symptoms of Colitis. All animals were evaluated clinically on a daily basis. The evaluation of each animal included a measurement of weight, hemoccult positivity and examination of stool for the presence of gross blood and stool consistency. The disease activity index (DAI) was calculated by scoring percent weight loss, intestinal bleeding (no blood; occult blood=hemoccult+; gross blood) and stool consistency (normal stool=well-formed pellets; loose stool=pasty and semiformed stools; diarrhea=liquid stool that stuck to the anus) (Table 1).
The animals were sacrificed, and the whole colon from the colo-cecal junction to the anal verge was removed and gently cleaned of stool. […]

[2] = system: IL-1β; assay: Real time RT-PCR of graft muscularis after SITx, IL-1β; assay type: in vivo, LEW rats; conditions: figure legend 23A-23D, graft muscularis 4 hours after transplantation
Protocol: Small Intestinal Transplantation. Orthotopic small intestinal transplantation (SITx) was performed in syngeneic Lewis rats. SITx with caval drainage was performed using a previously described procedure (Murase et al., in Handbook of Animal Models in Transplantation Research, Cramer et al., Eds. CRC Press, Boca Raton, Fla., pp. 203-213 (1994)). […] The graft was perfused via the aortic segment with 5 ml chilled Ringer's lactate solution, and the intestinal lumen was irrigated with 20 ml of cold saline solution containing 0.5% neomycin-sulfate (Sigma, St. Louis, Mo.). […]
(§1) SYBR green real time RT-PCR. The effects of administration of biliverdin on transplant-induced pro-inflammatory and anti-inflammatory gene expression were assessed in muscularis extracts by RT-PCR Biliverdin ([…], i.p.) was administered to both the donor and recipient three hours preoperatively. […] Equal aliquots (5 μg) of total RNA from each sample were quantified by spectrophotometry (wavelength […]) and aliquoted at a concentration of 40 ng/μl. Peak mRNA expression was quantified in duplicate by SYBR Green two-step, real-time RT-PCR. […] Real-time PCR data were plotted as the ΔRn fluorescence signal versus the cycle number. […] Quantification of mRNA expression was normalized to GAPDH and calculated relative to control using the comparative CT method (Schmittgen et al., J. Biochem. Biophys. Methods 46(1-2):69-8, 2000). […]

[3] = system: IL-6; assay: Real time RT-PCR of graft muscularis after SITx, IL-6; assay type: in vivo, LEW rats; conditions: figure legend 23A-23D, graft muscularis 4 hours after transplantation
Protocol: Small Intestinal Transplantation. Orthotopic small intestinal transplantation (SITx) was performed in syngeneic Lewis rats. SITx with caval drainage was performed using a previously described procedure (Murase et al., in Handbook of Animal Models in Transplantation Research, Cramer et al., Eds. CRC Press, Boca Raton, Fla., pp. 203-213 (1994)). […] The graft was perfused via the aortic segment with 5 ml chilled Ringer's lactate solution, and the intestinal lumen was irrigated with 20 ml of cold saline solution containing 0.5% neomycin-sulfate (Sigma, St. Louis, Mo.). End-to-side anastomoses between the graft aorta and the recipient infrarenal aorta, and between the graft portal vein and recipient vena cava, were performed with 10-0 Novafil™ suture. The cold ischemic time was 1 hour. The entire recipient intestine was removed and the enteric continuity was restored by proximal and distal end-to-end intestinal anastomoses. Recipient animals were given 20 mg/day prophylactic cefamandole nafate for 3 postoperative days. Transplanted recipients were given water 3 hours after surgery, and were fed 24 hours after surgery.
as §1, with “preoperatively. The muscularis externae was collected from normal intestine and transplanted grafts 4 hours postoperatively and snap frozen in liquid nitrogen.” for “preoperatively.”

[C-]#[O+] [CO, carbon monoxide]
mortality rate ([1]; 7 days of 5% DSS, CO exposure chamber 250-400 ppm): 14% | effect on DSS-colitis (weight loss, DAI) ([1]; continuous exposure to 200-400 ppm CO, compared to the control): did not have an effect | mean expression of IL-1b mRNA [2]: significantly reduced | mean expression of IL-6 mRNA [3]: significantly reduced
